Values joined by “and” are separate entries in the source; they are usually repeats but may differ in a detail not shown here. Equal values may be shown once.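 The compound was tested at five concentrations on cells cultured in 96-well plates, with a 48-hour exposure period. Abbreviation: GI50, concentration required for 50% inhibition of growth. The concentration for full growth arrest is given as TGI.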
What was measured:
Assay in all cases: growth of human tumour cells (NCI), 48 h
[1] = tested on: SF-295 CNS
[2] = tested on: SNB-19 CNS
[3] = tested on: M14 melanoma
[4] = tested on: SR leukemia
[5] = tested on: RPMI-8226 leukemia
[6] = tested on: HCT-15 colon
[7] = tested on: OVCAR-4 ovarian
[8] = tested on: NCI-H522 lung

SMILES | TGI [1] | TGI [2] | TGI [3] | TGI [4] | TGI [5] | TGI [6] | TGI [7] | TGI [8] | GI50 [1] | GI50 [2] | GI50 [3] | GI50 [4] | GI50 [5] | GI50 [6] | GI50 [7] | GI50 [8]
Nc1ncnc2c1ncn2C1OC(CO)C(O)C1N (centres undefined) | > 100 µM | > 100 µM | > 100 µM | > 100 µM | > 100 µM | > 100 µM | > 100 µM | > 100 µM |  |  |  |  |  |  |  | 
Cc1cc([N+](=O)[O-])c2ccccc2[n+]1[O-] | 0.76 µM and 2 µM | 4.06 µM and 8.29 µM | 1.08 µM and 1.11 µM |  | 0.359 µM and 0.0948 µM | 0.797 µM and 1.03 µM | 10.1 µM and 9.13 µM | 2.42 µM and 0.959 µM | 0.206 µM and 0.236 µM | 0.448 µM and 0.848 µM | 0.239 µM and 0.259 µM | 0.0279 µM and 0.0264 µM | 0.0602 µM and 0.0308 µM | 0.185 µM and 0.213 µM | 2.72 µM and 2.61 µM | 0.739 µM and 0.303 µM
O=C(CC(Cl)=C(Cl)Cl)c1cccc(Cl)c1Cl |  | > 100 µM | > 100 µM |  | > 100 µM | > 100 µM | > 100 µM | > 100 µM |  | > 100 µM | > 100 µM |  | 82.7 µM | 47.8 µM | > 100 µM | 36.9 µM
Cc1ccc(S(=O)(=O)NC(CN)C(=O)O)cc1 (centres undefined) | > 100 µM | > 100 µM | > 100 µM |  | > 100 µM | > 100 µM | > 100 µM | > 100 µM |  |  |  |  |  |  |  | 
COC(=O)CSSCc1ccc([N+](=O)[O-])cc1 | 43 µM | 77.2 µM | 46.4 µM | 70.2 µM | 54.8 µM | 48 µM |  | 30.8 µM |  |  |  |  |  |  |  | 
COc1cc2c3c(n(C)c(=O)c2cc1OC)-c1ccc(C#N)cc1C3=O | > 100 µM | > 100 µM | > 100 µM |  | > 100 µM | > 100 µM | > 100 µM | > 100 µM | 73.7 µM | > 100 µM | > 100 µM |  | > 100 µM | > 100 µM | > 100 µM | 52 µM
CN(C)C(=S)SCC(=O)Nc1ccccc1 | > 100 µM |  | > 100 µM | > 100 µM | > 100 µM | > 100 µM | > 100 µM | > 100 µM |  |  |  |  |  |  |  | 
O=C1c2ccccc2C(=O)c2c(OCCOCCO)cccc21 | > 100 µM | > 100 µM | > 100 µM | > 100 µM |  | > 100 µM | > 100 µM | > 100 µM |  |  |  |  |  |  |  | 
c1ccc2c3c([nH]c2c1)C(c1ccc(C2NCCc4c2[nH]c2ccccc42)cc1)NCC3 (centres undefined) | 3.33 µM | 3.54 µM | 1.58 µM |  | 1.09 µM | 1.78 µM | 2.53 µM | 1.49 µM | 1.62 µM | 1.73 µM | 0.403 µM |  | 0.34 µM | 0.429 µM | 1.14 µM | 0.414 µM
CN(C)CCNC(=O)c1cccc2c1Oc1c(cccc1[N+](=O)[O-])O2 | 5.09 µM |  | 16.2 µM | 15.6 µM | > 100 µM | 3.89 µM | > 100 µM | 3.22 µM |  |  |  |  |  |  |  | 
CC[C@H](C)[C@H](NC(=O)CN(C)C)C(=O)N(C)[C@H](C[C@@H](OC(C)=O)c1nc(C(=O)NC23CC(C(=O)OC)(C2)C3)cs1)C(C)C | > 25 µM | > 25 µM | > 5.78 µM |  | > 25 µM | > 25 µM | > 25 µM | > 7.88 µM | 0.647 µM | 0.852 µM | 0.0995 µM |  | 0.0845 µM | 1.01 µM | 4.64 µM | 0.0511 µM
COc1cc2c(=O)[nH]c3cc([N+](=O)[O-])ccc3c2cc1[N+](=O)[O-] | > 100 µM | > 100 µM | > 100 µM | > 100 µM |  | > 100 µM | > 100 µM | > 100 µM | 6.27 µM | 24.1 µM | 7 µM | 2.95 µM |  | 7.29 µM | 5.16 µM | 1.67 µM
CN(CC(=O)N(Cc1ccc(C2CCCCC2)cc1)c1ccc(C(=O)O)cc1)S(=O)(=O)c1c(F)c(F)c(F)c(F)c1F | 29.4 µM |  | 3.59 µM | 7.89 µM | 7.4 µM | 3.36 µM | 3.48 µM | 3.65 µM | 15.2 µM |  | 1.91 µM | 2.64 µM | 2.85 µM | 1.74 µM | 1.81 µM | 1.77 µM
CCN1CCN(C(=O)[C@]23CCC(C)(C)C[C@@H]2C2=CC[C@@H]4[C@@]5(C)C/C(=C/c6ccncc6)C(=O)C(C)(C)[C@@H]5CC[C@@]4(C)[C@]2(C)CC3)CC1 | 2.76 µM | 2.86 µM | 3.17 µM |  | 4.64 µM | 2.73 µM | 3.2 µM | 3.39 µM | 1.43 µM | 1.48 µM | 1.54 µM |  | 1.25 µM | 1.25 µM | 1.54 µM | 1.53 µM

Source: PubChem BioAssay (NCI)
